# Reference: patent US9695155B2, “Herbicidal substituted pyrimidinyloxy benzene compounds” (E. I. DU PONT DE NEMOURS AND COMPANY, priority 2013, dated 2017)
# Key:
# wheat [1] = test: Test A postemergence; assay type: in vivo, Triticum aestivum
# Outline: (§1)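 Scoring: eye-based comparison with untreated controls, 0 for no effect through 100 for complete control, at about day 10. Treatments: directed soil spray preemergence; foliar spray postemergence on 2–10 cm plants at the one- to two-leaf stage. Medium: loam soil with sand.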
# velvetleaf [2] = test: Test A preemergence; assay type: in vivo, Abutilon theophrasti; settings: for Plant response rating, Velvetleaf: 125 g ai/ha, 0 to 100 scale where 0 is no effect and 100 is complete control; for Velvetleaf plant response rating: 500 g ai/ha, 0 to 100 scale, 0 no effect, 100 complete control, approx. 10 days
# Outline: as §1
# barnyardgrass [3] = test: Test A preemergence; assay type: in vivo, Echinochloa crus-galli; settings: for Plant response rating, Barnyardgrass: 125 g ai/ha, 0 to 100 scale where 0 is no effect and 100 is complete control; for Barnyardgrass plant response rating: 500 g ai/ha, 0 to 100 scale, 0 no effect, 100 complete control, approx. 10 days
# Outline: as §1
# pigweed [4] = test: Test A postemergence; assay type: in vivo, Amaranthus retroflexus
# Outline: as §1
# velvetleaf [5] = test: Test A postemergence; assay type: in vivo, Abutilon theophrasti
# Outline: as §1
# giant foxtail [6] = test: Test A postemergence; assay type: in vivo, Setaria faberii
# Outline: as §1
# large (Lg) crabgrass [7] = test: Test A preemergence; assay type: in vivo, Digitaria sanguinalis; settings: for Plant response rating, Crabgrass, Large: 125 g ai/ha, 0 to 100 scale where 0 is no effect and 100 is complete control; for Crabgrass, Large plant response rating: 500 g ai/ha, 0 to 100 scale, 0 no effect, 100 complete control, approx. 10 days
# Outline: as §1
# large (Lg) crabgrass [8] = test: Test A postemergence; assay type: in vivo, Digitaria sanguinalis
# Outline: as §1
# morningglory [9] = test: Test A postemergence; assay type: in vivo, Ipomoea spp.
# Outline: as §1
# barnyardgrass [10] = test: Test A postemergence; assay type: in vivo, Echinochloa crus-galli
# Outline: as §1
# rice = test: Test B flooded paddy test; assay type: in vivo, Oryza sativa; settings: Flood, 250 g ai/ha; 0 to 100 scale where 0 is no effect and 100 is complete control
# Outline: (§2)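 Plants were grown to the 2-leaf stage, then pots were flooded to 3 cm above the soil and compounds were applied directly into the paddy water. That depth was held throughout, and after 13 to 15 days in the greenhouse injury was rated visually against controls on a 0–100 scale (0 no effect, 100 complete control).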
# sedge, umbrella = test: Test B flooded paddy test; assay type: in vivo, Cyperus difformis; settings: Flood, 250 g ai/ha; 0 to 100 scale where 0 is no effect and 100 is complete control
# Outline: as §2
# barnyardgrass [11] = test: Test B flooded paddy test; assay type: in vivo, Echinochloa crus-galli; settings: Flood, 250 g ai/ha; 0 to 100 scale where 0 is no effect and 100 is complete control
# Outline: as §2
# corn [12] = test: Test A postemergence; assay type: in vivo, Zea mays
# Outline: as §1
# corn [13] = test: Test A preemergence; assay type: in vivo, Zea mays; settings: for Plant response rating, Corn: 125 g ai/ha, 0 to 100 scale where 0 is no effect and 100 is complete control; for Corn plant response rating: 500 g ai/ha, 0 to 100 scale, 0 no effect, 100 complete control, approx. 10 days
# Outline: as §1
# pigweed [14] = test: Test A preemergence; assay type: in vivo, Amaranthus retroflexus; settings: for Plant response rating, Pigweed: 125 g ai/ha, 0 to 100 scale where 0 is no effect and 100 is complete control; for Pigweed plant response rating: 500 g ai/ha, 0 to 100 scale, 0 no effect, 100 complete control, approx. 10 days
# Outline: as §1
# morningglory [15] = test: Test A preemergence; assay type: in vivo, Ipomoea spp.; settings: for Plant response rating, Morningglory: 125 g ai/ha, 0 to 100 scale where 0 is no effect and 100 is complete control; for Morningglory plant response rating: 500 g ai/ha, 0 to 100 scale, 0 no effect, 100 complete control, approx. 10 days
# Outline: as §1
# wheat [16] = test: Test A preemergence; assay type: in vivo, Triticum aestivum; settings: for Plant response rating, Wheat: 125 g ai/ha, 0 to 100 scale where 0 is no effect and 100 is complete control; for Wheat plant response rating: 500 g ai/ha, 0 to 100 scale, 0 no effect, 100 complete control, approx. 10 days
# Outline: as §1
# Heteranthera limosa = test: Test B flooded paddy test; assay type: in vivo; settings: Flood, 250 g ai/ha; 0 to 100 scale where 0 is no effect and 100 is complete control
# Outline: as §2
# giant foxtail [17] = test: Test A preemergence; assay type: in vivo, Setaria faberii; settings: for Plant response rating, Foxtail, Giant: 125 g ai/ha, 0 to 100 scale where 0 is no effect and 100 is complete control; for Foxtail, Giant plant response rating: 500 g ai/ha, 0 to 100 scale, 0 no effect, 100 complete control, approx. 10 days
# Outline: as §1
# [18] = 125 g ai/ha, 0 to 100 scale where 0 is no effect and 100 is complete control
# [19] = 500 g ai/ha, 0 to 100 scale, 0 no effect, 100 complete control
SMILES,"Plant response rating, Wheat (wheat [1]; [18])","Plant response rating, Wheat (wheat [1]; [19])","Plant response rating, Velvetleaf (velvetleaf [2])",Velvetleaf plant response rating (velvetleaf [2]),"Plant response rating, Barnyardgrass (barnyardgrass [3])",Barnyardgrass plant response rating (barnyardgrass [3]),"Plant response rating, Pigweed (pigweed [4]; [18])","Plant response rating, Pigweed (pigweed [4]; [19])","Plant response rating, Velvetleaf (velvetleaf [5]; [18])","Plant response rating, Velvetleaf (velvetleaf [5]; [19])","Plant response rating, Foxtail, Giant (giant foxtail [6]; [18])","Plant response rating, Foxtail, Giant (giant foxtail [6]; [19])","Plant response rating, Crabgrass, Large (large (Lg) crabgrass [7])","Crabgrass, Large plant response rating (large (Lg) crabgrass [7])","Plant response rating, Crabgrass, Large (large (Lg) crabgrass [8]; [18])","Plant response rating, Crabgrass, Large (large (Lg) crabgrass [8]; [19])","Plant response rating, Morningglory (morningglory [9]; [18])","Plant response rating, Morningglory (morningglory [9]; [19])","Plant response rating, Barnyardgrass (barnyardgrass [10]; [18])","Plant response rating, Barnyardgrass (barnyardgrass [10]; [19])",further results
Cc1cccc(Oc2ncc(Cl)cn2)c1-n1cc(Br)cn1 [Compound 44],0,30,70,100,50,100,70,100,100,100,50,90,90,100,80,100,20,60,30,90,"Plant response rating, Rice (rice): 45; Plant response rating, Sedge, Umbrella (sedge, umbrella): 90; Plant response rating, Barnyardgrass (barnyardgrass [11]): 20; Plant response rating, Corn (corn [12]; [18]): 20; Plant response rating, Corn (corn [12]; [19]): 40; Plant response rating, Corn (corn [13]): 0; Corn plant response rating (corn [13]): 20; Plant response rating, Pigweed (pigweed [14]): 100; Pigweed plant response rating (pigweed [14]): 100; Plant response rating, Morningglory (morningglory [15]): 50; Morningglory plant response rating (morningglory [15]): 60; Plant response rating, Wheat (wheat [16]): 0; Wheat plant response rating (wheat [16]): 20; Plant response rating, Ducksalad (Heteranthera limosa): 100; Plant response rating, Foxtail, Giant (giant foxtail [17]): 60; Foxtail, Giant plant response rating (giant foxtail [17]): 100"
Cc1cccc(Oc2ncc(Br)cn2)c1-n1cc(Br)cn1 [Compound 45],0,40,100,100,30,100,60,80,100,100,70,90,90,100,60,100,10,20,40,100,"Plant response rating, Rice (rice): 0; Plant response rating, Sedge, Umbrella (sedge, umbrella): 75; Plant response rating, Barnyardgrass (barnyardgrass [11]): 30; Plant response rating, Corn (corn [12]; [18]): 10; Plant response rating, Corn (corn [12]; [19]): 70; Plant response rating, Corn (corn [13]): 0; Corn plant response rating (corn [13]): 20; Plant response rating, Pigweed (pigweed [14]): 100; Pigweed plant response rating (pigweed [14]): 100; Plant response rating, Morningglory (morningglory [15]): 0; Morningglory plant response rating (morningglory [15]): 10; Plant response rating, Wheat (wheat [16]): 0; Wheat plant response rating (wheat [16]): 0; Plant response rating, Ducksalad (Heteranthera limosa): 85; Plant response rating, Foxtail, Giant (giant foxtail [17]): 90; Foxtail, Giant plant response rating (giant foxtail [17]): 100"
FC(F)(F)c1ccc(Oc2ncc(Cl)cn2)c(-n2cc(Br)cn2)c1 [Compound 48],0,0,0,0,0,0,20,50,0,10,0,20,50,80,10,20,20,30,0,10,"Plant response rating, Rice (rice): 0; Plant response rating, Sedge, Umbrella (sedge, umbrella): 0; Plant response rating, Barnyardgrass (barnyardgrass [11]): 0; Plant response rating, Corn (corn [12]; [18]): 0; Plant response rating, Corn (corn [12]; [19]): 0; Plant response rating, Corn (corn [13]): 0; Corn plant response rating (corn [13]): 0; Plant response rating, Pigweed (pigweed [14]): 0; Pigweed plant response rating (pigweed [14]): 0; Plant response rating, Morningglory (morningglory [15]): 0; Morningglory plant response rating (morningglory [15]): 0; Plant response rating, Wheat (wheat [16]): 0; Wheat plant response rating (wheat [16]): 0; Plant response rating, Ducksalad (Heteranthera limosa): 0; Plant response rating, Foxtail, Giant (giant foxtail [17]): 10; Foxtail, Giant plant response rating (giant foxtail [17]): 50"
Clc1cnc(Oc2cc(Cl)ccc2-n2cccn2)nc1 [Compound 49],0,0,0,20,0,0,0,40,10,30,0,10,0,20,0,10,0,20,0,10,"Plant response rating, Rice (rice): 0; Plant response rating, Sedge, Umbrella (sedge, umbrella): 0; Plant response rating, Barnyardgrass (barnyardgrass [11]): 0; Plant response rating, Corn (corn [12]; [18]): 0; Plant response rating, Corn (corn [12]; [19]): 0; Plant response rating, Corn (corn [13]): 0; Corn plant response rating (corn [13]): 0; Plant response rating, Pigweed (pigweed [14]): 0; Pigweed plant response rating (pigweed [14]): 0; Plant response rating, Morningglory (morningglory [15]): 0; Morningglory plant response rating (morningglory [15]): 0; Plant response rating, Wheat (wheat [16]): 0; Wheat plant response rating (wheat [16]): 0; Plant response rating, Ducksalad (Heteranthera limosa): 0; Plant response rating, Foxtail, Giant (giant foxtail [17]): 0; Foxtail, Giant plant response rating (giant foxtail [17]): 10"
Clc1ccc(-n2cccn2)c(Oc2ncc(Br)cn2)c1 [Compound 50],0,0,0,0,0,0,20,30,0,10,0,0,0,40,0,10,20,30,0,10,"Plant response rating, Rice (rice): 0; Plant response rating, Sedge, Umbrella (sedge, umbrella): 0; Plant response rating, Barnyardgrass (barnyardgrass [11]): 0; Plant response rating, Corn (corn [12]; [18]): 0; Plant response rating, Corn (corn [12]; [19]): 0; Plant response rating, Corn (corn [13]): 0; Corn plant response rating (corn [13]): 0; Plant response rating, Pigweed (pigweed [14]): 0; Pigweed plant response rating (pigweed [14]): 0; Plant response rating, Morningglory (morningglory [15]): 0; Morningglory plant response rating (morningglory [15]): 0; Plant response rating, Wheat (wheat [16]): 0; Wheat plant response rating (wheat [16]): 0; Plant response rating, Ducksalad (Heteranthera limosa): 0; Plant response rating, Foxtail, Giant (giant foxtail [17]): 0; Foxtail, Giant plant response rating (giant foxtail [17]): 0"
